Test results taken from US20100267561A1, “HERBICIDAL PYRIDAZINONE DERIVATIVES” (priority 2007, published 2010).
Read-outs that look alike come from different tables or passages of the source.

Columns and labels:
Type in all cases: in vivo
[1] = system: barnyardgrass (Echinochloa crus-galli); assay: Test B flooded paddy test plant response; conditions: Echinochloa crus-galli, Flood (flooded paddy test), scale 0 to 100, 0 no effect, 100 complete control, read-out: Plant response rating, Barnyardgrass
Method in brief: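 Paddy-water application to 2-leaf plants in pots held under 3 cm of flooding; response is a 0–100 visual control rating against controls after 13 to 15 days, and a dash marks a missing result.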

[2] = system: winter barley (Hordeum vulgare); assay: Test B postemergence plant response; conditions: for Plant response rating, Barley: Postemergence, scale 0 to 100, 0 no effect, 100 complete control
Method in brief: (§1)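 Postemergence spray on 1- to 4-leaf plants (2–18 cm); greenhouse 13–15 d; visual rating vs controls, 0 = no effect, 100 = complete control; dash = not tested.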

[3] = system: windgrass (Apera spica-venti); assay: Test B postemergence plant response; conditions: for Windgrass plant response rating: postemergence, 0-100 scale; for Plant response rating, Windgrass: Postemergence
Method in brief: as §1

[4] = system: canarygrass (Phalaris minor); assay: Test B postemergence plant response; conditions: for Plant response rating, Canarygrass: Postemergence
Method in brief: as §1

[5] = system: chickweed (Stellaria media); assay: Test B postemergence plant response; conditions: for Plant response rating, Chickweed: Postemergence
Method in brief: as §1

corn (Zea mays) = assay: Test B pre-/postemergence plant response; conditions: for Corn plant response rating (crop injury, 0 = no effect, 100 = complete kill) at 31 g/ha: 31 g ai/ha; for Corn plant response rating (crop injury, 0 = no effect, 100 = complete kill) at 62 g/ha: 62 g ai/ha, 100 complete control
Method in brief: (§2)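 Preemergence and postemergence (plants 2-18 cm, 1- to 4-leaf stage) applications used test chemicals in a non-phytotoxic solvent with surfactant. Plants were held in a greenhouse 13 to 15 days, then rated visually against controls on a 0-100 scale (0 no effect, 100 complete control).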

wild oat (Avena fatua) = assay: Test B pre-/postemergence plant response; conditions: for pest or weed control at 31 g/ha / pest or weed control at 62 g/ha: Avena fatua, read-out: Plant response rating, Oat, Wild; for pest or weed control at 31 g/ha: 31 g ai/ha; for pest or weed control at 62 g/ha: 62 g ai/ha, 100 complete control
Method in brief: as §2

[6] = system: morningglory (Ipomoea coccinea); assay: Test B pre-/postemergence plant response; conditions: for pest or weed control at 31 g/ha / pest or weed control at 62 g/ha: Ipomoea, read-out: Plant response rating, Morningglory; for pest or weed control at 31 g/ha: 31 g ai/ha; for pest or weed control at 62 g/ha: 62 g ai/ha, 100 complete control
Method in brief: as §2

[7] = system: bermudagrass (Cynodon dactylon); assay: Test B pre-/postemergence plant response; conditions: for pest or weed control at 31 g/ha: 31 g ai/ha; for pest or weed control at 62 g/ha: 62 g ai/ha, 100 complete control
Method in brief: as §2

[8] = system: lambsquarters (Chenopodium album); assay: Test B pre-/postemergence plant response; conditions: for pest or weed control at 31 g/ha / pest or weed control at 62 g/ha: Chenopodium album, read-out: Plant response rating, Lambsquarters; for pest or weed control at 31 g/ha: 31 g ai/ha; for pest or weed control at 62 g/ha: 62 g ai/ha, 100 complete control
Method in brief: as §2

[9] = system: giant foxtail (Setaria faberii); assay: Test B pre-/postemergence plant response; conditions: for pest or weed control at 31 g/ha: 31 g ai/ha; for pest or weed control at 62 g/ha: 62 g ai/ha, 100 complete control
Method in brief: as §2

[10] = system: yellow nutsedge (Cyperus esculentus); assay: Test B pre-/postemergence plant response; conditions: for pest or weed control at 31 g/ha / pest or weed control at 62 g/ha: Cyperus, read-out: Plant response rating, Nutsedge, Yellow; for pest or weed control at 31 g/ha: 31 g ai/ha; for pest or weed control at 62 g/ha: 62 g ai/ha, 100 complete control
Method in brief: as §2

[11] = system: blackgrass (Alopecurus myosuroides); assay: Test B pre-/postemergence plant response; conditions: for pest or weed control at 31 g/ha: 31 g ai/ha; for pest or weed control at 62 g/ha: 62 g ai/ha, 100 complete control
Method in brief: as §2

[12] = system: eastern black (E.B.) nightshade (Solanum ptycanthum); assay: Test B pre-/postemergence plant response; conditions: Preemergence; for Nightshade, E. B. plant response rating: scale 0 to 100
Method in brief: as §2

[13] = system: velvetleaf (Abutilon theophrasti); assay: Test B pre-/postemergence plant response; conditions: for pest or weed control at 31 g/ha / pest or weed control at 62 g/ha: Abutilon theophrasti, read-out: Plant response rating, Velvetleaf; for pest or weed control at 31 g/ha: 31 g ai/ha; for pest or weed control at 62 g/ha: 62 g ai/ha, 100 complete control
Method in brief: as §2

[14] = 8 g ai/ha, postemergence, 0-100 scale
[15] = 62 g ai/ha, scale 0 to 100, 0 no effect, 100 complete control
[16] = Preemergence, 8 g ai/ha, scale 0 to 100
[17] = Preemergence, 16 g ai/ha, scale 0 to 100
[18] = 16 g ai/ha, postemergence, 0-100 scale
[19] = post-emergence, Postemergence, scale 0 to 100
[20] = post-emergence, Postemergence, scale 0 to 100, 0 no effect
[21] = pre-emergence, Preemergence, scale 0 to 100 (0 no effect, 100 complete control)
[22] = pre-emergence, Preemergence, 0 to 100 scale, 0 no effect

SMILES: Cc1nn(C)c(=O)c(-n2nc(-c3ccc(C(F)(F)F)cc3)cc2C)c1O [Compound 75, 5-hydroxy-2,6-dimethyl-4-[5-methyl-3-[4-(trifluoromethyl)phenyl]-1H-pyrazol-1-yl]-3(2H)-pyridazinone]
- pest or weed control at 62 g/ha ([1]; 62 g ai/ha): 0%
- pest or weed control at 250 g/ha ([1]; 250 g ai/ha): 0%
- Barley plant response rating [2, 14]: 0
- Plant response rating, Barley ([2]; 16 g ai/ha): 0
- Plant response rating, Barley ([2]; 31 g ai/ha): 15
- Plant response rating, Barley ([2]; 62 g ai/ha): 60
- Windgrass plant response rating ([3]; 8 g ai/ha): 10
- Windgrass plant response rating ([3]; 16 g ai/ha): 50
- Plant response rating, Windgrass ([3]; 31 g ai/ha, scale 0 to 100): 70
- Plant response rating, Windgrass [3, 15]: 90
- Canarygrass plant response rating [4, 14]: 0
- Plant response rating, Canarygrass ([4]; 16 g ai/ha, scale 0 to 100): 0
- Plant response rating, Canarygrass ([4]; 31 g ai/ha, scale 0 to 100): 0
- Plant response rating, Canarygrass [4, 15]: 50
- Chickweed plant response rating [5, 14]: 0
- Plant response rating, Chickweed ([5]; 16 g ai/ha, scale 0 to 100): 0
- Plant response rating, Chickweed ([5]; 31 g ai/ha, scale 0 to 100): 0
- Plant response rating, Chickweed [5, 15]: 0
- Corn plant response rating (corn (Zea mays); [14]): 0
- Corn plant response rating (corn (Zea mays); [16]): 0
- Corn plant response rating (corn (Zea mays); [17]): 0
- Corn plant response rating (crop injury, 0 = no effect, 100 = complete kill) at 16 g/ha (corn (Zea mays); Zea mays, post-emergence, Postemergence, 16 g ai/ha, scale 0 to 100): 50%
- Corn plant response rating (crop injury, 0 = no effect, 100 = complete kill) at 31 g/ha (corn (Zea mays); Zea mays, post-emergence, Postemergence, scale 0 to 100): 90%
- Corn plant response rating (crop injury, 0 = no effect, 100 = complete kill) at 62 g/ha (corn (Zea mays); Zea mays, post-emergence, Postemergence, scale 0 to 100, 0 no effect): 100%
- Corn plant response rating (crop injury, 0 = no effect, 100 = complete kill) at 31 g/ha (corn (Zea mays); Zea mays, pre-emergence, Preemergence, scale 0 to 100 (0 no effect, 100 complete control)): 75%
- Corn plant response rating (crop injury, 0 = no effect, 100 = complete kill) at 62 g/ha (corn (Zea mays); Zea mays, pre-emergence, Preemergence, 0 to 100 scale, 0 no effect): 95%
- Oat, Wild plant response rating (wild oat (Avena fatua); [14]): 0
- Oat, Wild plant response rating (wild oat (Avena fatua); [18]): 30
- pest or weed control at 31 g/ha (wild oat (Avena fatua); [19]): 85%
- pest or weed control at 62 g/ha (wild oat (Avena fatua); [20]): 98%
- pest or weed control at 31 g/ha (wild oat (Avena fatua); [21]): 40%
- pest or weed control at 62 g/ha (wild oat (Avena fatua); [22]): 50%
- Oat, Wild plant response rating (wild oat (Avena fatua); [16]): 0
- Oat, Wild plant response rating (wild oat (Avena fatua); [17]): 0
- Morningglory plant response rating [6, 14]: 0
- Morningglory plant response rating [6, 18]: 0
- pest or weed control at 31 g/ha [6, 19]: 0%
- pest or weed control at 62 g/ha [6, 20]: 0%
- pest or weed control at 31 g/ha [6, 21]: 0%
- pest or weed control at 62 g/ha [6, 22]: 0%
- Morningglory plant response rating [6, 16]: 0
- Morningglory plant response rating [6, 17]: 0
- Bermudagrass plant response rating [7, 14]: 65
- pest or weed control at 16 g/ha ([7]; Cynodon dactylon, post-emergence, Postemergence, 16 g ai/ha, scale 0 to 100, read-out: Plant response rating, Bermudagrass): 80%
- pest or weed control at 31 g/ha ([7]; Cynodon dactylon, post-emergence, Postemergence, scale 0 to 100, read-out: Plant response rating, Bermudagrass): 85%
- pest or weed control at 62 g/ha ([7]; Cynodon dactylon, post-emergence, Postemergence, scale 0 to 100, 0 no effect, read-out: Plant response rating, Bermudagrass): 90%
- pest or weed control at 31 g/ha ([7]; Cynodon dactylon, pre-emergence, Preemergence, scale 0 to 100 (0 no effect, 100 complete control), read-out: Plant response rating, Bermudagrass): 65%
- pest or weed control at 62 g/ha ([7]; Cynodon dactylon, pre-emergence, Preemergence, 0 to 100 scale, 0 no effect, read-out: Plant response rating, Bermudagrass): 98%
- Bermudagrass plant response rating ([7]; Preemergence, 16 g ai/ha, scale 0 to 100 (0 no effect, 100 complete control)): 0
- Lambsquarters plant response rating [8, 14]: 0
- Lambsquarters plant response rating [8, 18]: 0
- pest or weed control at 31 g/ha [8, 19]: 0%
- pest or weed control at 62 g/ha [8, 20]: 0%
- pest or weed control at 31 g/ha [8, 21]: 0%
- pest or weed control at 62 g/ha [8, 22]: 0%
- Lambsquarters plant response rating [8, 16]: 0
- Lambsquarters plant response rating [8, 17]: 0
- Foxtail, Giant plant response rating [9, 14]: 50
- Foxtail, Giant plant response rating [9, 16]: 0
- Foxtail, Giant plant response rating [9, 17]: 0
- pest or weed control at 16 g/ha ([9]; Setaria faberi, post-emergence, Postemergence, 16 g ai/ha, scale 0 to 100, read-out: Plant response rating, Foxtail, Giant): 70%
- pest or weed control at 31 g/ha ([9]; Setaria faberi, post-emergence, Postemergence, scale 0 to 100, read-out: Plant response rating, Foxtail, Giant): 80%
- pest or weed control at 62 g/ha ([9]; Setaria faberi, post-emergence, Postemergence, scale 0 to 100, 0 no effect, read-out: Plant response rating, Foxtail, Giant): 85%
- pest or weed control at 31 g/ha ([9]; Setaria faberi, pre-emergence, Preemergence, scale 0 to 100 (0 no effect, 100 complete control), read-out: Plant response rating, Foxtail, Giant): 50%
- pest or weed control at 62 g/ha ([9]; Setaria faberi, pre-emergence, Preemergence, 0 to 100 scale, 0 no effect, read-out: Plant response rating, Foxtail, Giant): 95%
- Nutsedge, Yellow plant response rating [10, 14]: 0
- Nutsedge, Yellow plant response rating [10, 18]: 0
- pest or weed control at 31 g/ha [10, 19]: 0%
- pest or weed control at 62 g/ha [10, 20]: 0%
- pest or weed control at 31 g/ha [10, 21]: 0%
- pest or weed control at 62 g/ha [10, 22]: 0%
- Nutsedge, Yellow plant response rating [10, 16]: 0
- Nutsedge, Yellow plant response rating [10, 17]: 0
- Blackgrass plant response rating [11, 14]: 10
- pest or weed control at 16 g/ha ([11]; Alopecurus myosuroides, post-emergence, Postemergence, 16 g ai/ha, scale 0 to 100, read-out: Plant response rating, Blackgrass): 50%
- pest or weed control at 31 g/ha ([11]; Alopecurus myosuroides, post-emergence, Postemergence, scale 0 to 100, read-out: Plant response rating, Blackgrass): 65%
- pest or weed control at 62 g/ha ([11]; Alopecurus myosuroides, post-emergence, Postemergence, scale 0 to 100, 0 no effect, read-out: Plant response rating, Blackgrass): 95%
- pest or weed control at 31 g/ha ([11]; Alopecurus myosuroides, pre-emergence, Preemergence, scale 0 to 100 (0 no effect, 100 complete control), read-out: Plant response rating, Blackgrass): 60%
- pest or weed control at 62 g/ha ([11]; Alopecurus myosuroides, pre-emergence, Preemergence, 0 to 100 scale, 0 no effect, read-out: Plant response rating, Blackgrass): 90%
- Blackgrass plant response rating [11, 16]: 0
- Blackgrass plant response rating [11, 17]: 20
- Nightshade, E. B. plant response rating ([12]; 8 g ai/ha): 0
- Nightshade, E. B. plant response rating ([12]; 16 g ai/ha): 0
- pest or weed control at 31 g/ha ([12]; Solanum, pre-emergence, 31 g ai/ha, scale 0 to 100 (0 no effect, 100 complete control), read-out: Plant response rating, Nightshade, E. B.): 0%
- pest or weed control at 62 g/ha ([12]; Solanum, pre-emergence, 62 g ai/ha, 0 to 100 scale, 0 no effect, 100 complete control, read-out: Plant response rating, Nightshade, E. B.): 0%
- Velvetleaf plant response rating [13, 14]: 0
- Velvetleaf plant response rating [13, 18]: 0
- pest or weed control at 31 g/ha [13, 19]: 0%
- pest or weed control at 62 g/ha [13, 20]: 0%
- pest or weed control at 31 g/ha [13, 21]: 0%
- pest or weed control at 62 g/ha [13, 22]: 0%
- Velvetleaf plant response rating [13, 16]: 0
- Velvetleaf plant response rating [13, 17]: 0
